Measured values from patent publication US5430018A, “Cyclohexapeptide with basic nitrogen containing alkylamide groups” (priority 1991, dated 1995).
In brackets after ≈: the same amount, converted by molar mass. Numbered stars: 1 amine (or outer) side, 2 acyl side, 3 side chain; on linkers, the order of the positions; unused ones are H or OH. Bridge positions count the residues as written; N and C are the ends. Square brackets hold non-standard residues; d marks the D form. Peptide text beside a SMILES is read from it. * marks the point of attachment. Tetradecanoyl(10R,12S-Me2) = CC[C@H](C)C[C@H](C)CCCCCCCCC(=O)*; Orn(4R-OH) = O=C([C@H](C[C@@H](O)CN[*:3])N[*:1])[*:2]; hTyr(3R-OH) = N[C@H](C(=O)O)[C@H](O)Cc1ccc(O)cc1; X1 = COC(=O)C[C@@H](O)[C@H](N[*:1])C(=O)[*:2]; X2 = O=C(O)C[C@@H](O)[C@H](N[*:1])C(=O)[*:2]; Pro(3S-OH) = O=C(O)[C@H]1NCC[C@@H]1O; Hyp = O=C(O)[C@@H]1C[C@@H](O)CN1

Tests used:
C. albicans MY 1055 = type: cell-based, Candida albicans; conditions: MY 1055, 24 h
Description: The compounds of the present invention are active against many fungi and particularly against Candida species. The antifungal properties maybe illustrated with the minimum fungicidal concentration (MFC) determination against certain Candida organisms in a microbroth dilution assay carried out in a Yeast Nitrogen Base (Difco) medium with 1% dextrose (YNBD). In separate assays, the compounds (all Seq. ID No. 1) were solubilized in 10% dimethyl sulfoxide (DMSO) and diluted to 2560 μg/ml. The solution was then diluted to 256 μg/ml in YNBD and dispensed via a multichannel pipetter into the top row of a 96-well plate (each well containing 0.15 ml of YNBD), resulting in a drug concentration of 128 μg/ml. Compounds in the top row were diluted 2-fold down the columns yielding final drug concentrations ranging from 128-0.06 μg/ml. All tests were performed in duplicate. A four-hour broth culture of C. albicans MY 1055 was adjusted using a spectrophotometer at 530 nm to equal a 0.5 McFarland Standard. This yields a cell concentration of 1-5×10^6 colony forming units (CFU)/ml. The 96-well microplates were inoculated using an MIC-2000 (Dynatech), which delivers […] per well, yielding a final inoculum per well of 1.5-7.5×10^3 cells. One column per tray containing drug-free growth control wells was included. […]

C. albicans MY 1028 = type: cell-based, Candida albicans; conditions: MY 1028, 24 h

| Compound | MFC C. albicans MY 1055 (C. albicans MY 1055) | MFC C. albicans MY 1028 (C. albicans MY 1028) |
| --- | --- | --- |
| CC[C@H](C)C[C@H](C)CCCCCCCCC(=O)N[C@H]1C[C@@H](O)CNC(=O)[C@@H]2[C@@H](O)CCN2C(=O)[C@H]([C@H](O)CC(=O)OC)NC(=O)[C@H]([C@H](O)Cc2ccc(O)cc2)NC(=O)[C@@H]2C[C@@H](O)CN2C(=O)[C@H]([C@@H](C)O)NC1=O [methyl ester] ({Tetradecanoyl(10R,12S-Me2)}-[Orn(4R-OH)]T[Hyp][hTyr(3R-OH)][X1][Pro(3S-OH)]; lactam 1-C) | 0.5 µg/mL (≈ 0.477 µM) | 0.25 µg/mL (≈ 0.238 µM) |
| CC[C@H](C)C[C@H](C)CCCCCCCCC(=O)N[C@H]1C[C@@H](O)CNC(=O)[C@@H]2[C@@H](O)CCN2C(=O)[C@H]([C@H](O)CC(=O)O)NC(=O)[C@H]([C@H](O)Cc2ccc(O)cc2)NC(=O)[C@@H]2C[C@@H](O)CN2C(=O)[C@H]([C@@H](C)O)NC1=O [acid] ({Tetradecanoyl(10R,12S-Me2)}-[Orn(4R-OH)]T[Hyp][hTyr(3R-OH)][X2][Pro(3S-OH)]; lactam 1-C) | 0.5 µg/mL (≈ 0.483 µM) | 1 µg/mL (≈ 0.967 µM) |
